Earlier results in patent publication US20090023742A1, “THIAZOLONES FOR USE AS PI3 KINASE INHIBITORS” (priority 2006, published 2009).

Test system: Class I PI3-kinases
Settings: each of the four Class I PI3-kinases; read-out: IC50 values against each of the various Class I PI3-kinases

In the case of wortmannin, the IC50 is given as 1 to 10 nM.
